In patent US20210253575A1, “PYRROLIDINE AMINE COMPOUNDS FOR THE TREATMENT OF AUTOIMMUNE DISEASE” (Hoffmann-La Roche Inc., priority 2018, published 2021) one finds IC50 data, which are given here for 13 compounds.

SMILES strings stand for the structures.

A word on the IC50: it is the concentration at which inhibition is half-maximal. Read a low IC50 as higher potency.

In the assay the target is T1, human TLR8 (Homo sapiens, UniProt Q9NR97).
T1 sequence (Q9NR97 27-1041): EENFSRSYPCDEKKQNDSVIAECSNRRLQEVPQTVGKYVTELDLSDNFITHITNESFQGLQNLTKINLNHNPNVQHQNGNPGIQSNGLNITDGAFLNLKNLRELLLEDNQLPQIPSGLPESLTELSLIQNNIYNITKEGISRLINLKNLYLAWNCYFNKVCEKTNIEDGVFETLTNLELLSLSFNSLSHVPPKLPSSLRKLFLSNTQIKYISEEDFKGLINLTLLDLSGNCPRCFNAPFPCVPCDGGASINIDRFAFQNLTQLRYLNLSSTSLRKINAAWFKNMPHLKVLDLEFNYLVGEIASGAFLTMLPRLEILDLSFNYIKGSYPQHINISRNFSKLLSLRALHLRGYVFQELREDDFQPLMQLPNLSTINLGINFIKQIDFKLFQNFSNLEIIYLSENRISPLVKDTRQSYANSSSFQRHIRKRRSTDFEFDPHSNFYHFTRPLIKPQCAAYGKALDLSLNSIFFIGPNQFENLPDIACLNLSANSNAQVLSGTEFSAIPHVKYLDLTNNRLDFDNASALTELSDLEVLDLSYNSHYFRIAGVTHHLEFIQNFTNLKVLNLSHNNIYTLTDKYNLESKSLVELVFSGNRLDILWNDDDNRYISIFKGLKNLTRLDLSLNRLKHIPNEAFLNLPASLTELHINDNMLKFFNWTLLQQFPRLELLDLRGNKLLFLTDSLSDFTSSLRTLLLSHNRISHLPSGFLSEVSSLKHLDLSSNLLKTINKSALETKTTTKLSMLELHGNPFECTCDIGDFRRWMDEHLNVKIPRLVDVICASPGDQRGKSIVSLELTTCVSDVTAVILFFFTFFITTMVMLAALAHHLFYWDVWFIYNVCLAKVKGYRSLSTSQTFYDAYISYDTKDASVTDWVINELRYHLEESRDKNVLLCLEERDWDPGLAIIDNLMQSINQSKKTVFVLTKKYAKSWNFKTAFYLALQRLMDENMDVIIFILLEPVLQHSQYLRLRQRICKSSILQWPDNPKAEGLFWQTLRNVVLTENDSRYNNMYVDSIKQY
Briefly: HEK293-Blue-hTLR-8 cells assay (SEAP reporter, R848 stimulation). It counts as cell-based. The following applies: HEK293-Blue-hTLR8 cells, R848 ligand, 20 hrs incubation. The protocol:
The following tests were carried out in order to determine the activity of the compounds of formula (I) in HEK293-Blue-hTLR-7/8/9 cells assay.
HEK293-Blue-hTLR-8 Cells Assay:
A stable HEK293-Blue-hTLR-8 cell line was purchased from InvivoGen (Cat. #: hkb-htlr8, San Diego, Calif., USA). These cells were originally designed for studying the stimulation of human TLR8 by monitoring the activation of NF-κB. A SEAP (secreted embryonic alkaline phosphatase) reporter gene was placed under the control of the IFN-β minimal promoter fused to five NF-κB and AP-1-binding sites. The SEAP was induced by activating NF-κB and AP-1 via stimulating HEK-Blue hTLR8 cells with TLR8 ligands. Therefore the reporter expression was declined by TLR8 antagonist under the stimulation of a ligand, such as R848, for incubation of 20 hrs. The cell culture supernatant SEAP reporter activity was determined using QUANTI-Blue™ kit (Cat. #: rep-qb1, Invivogen, San Diego, Ca, USA) at a wavelength of 640 nm, a detection medium that turns purple or blue in the presence of alkaline phosphatase.
HEK293-Blue-hTLR8 cells were incubated at a density of 250,000˜450,000 cells/mL in a volume of 170 μL in a 96-well plate in Dulbecco's Modified Eagle's medium (DMEM) containing 4.5 g/L glucose, 50 U/mL penicillin, […], […], 2 mM L-glutamine, 10% (v/v) heat-inactivated fetal bovine serum with addition of 20 μL test compound in a serial dilution in the presence of final DMSO at 1% and 10 μL of 60 uM R848 in above DMEM, perform incubation under 37° C. in a CO2 incubator for 20 hrs. Then 20 μL of the supernatant from each well was incubated with 180 μL Quanti-blue substrate solution at 37° C. for 2 hrs and the absorbance was read at 620-655 nm using a spectrophotometer. The signalling pathway that TLR8 activation leads to downstream NF-κB activation has been widely accepted, and therefore similar reporter assay was modified for evaluating TLR8 antagonist.
`N#Cc1ccc(N2C[C@H](CN3CCC4(CCNC4)CC3)[C@@H](C(F)(F)F)C2)c2nccnc12` [Example 14, 8-[(3S,4R)-3-(2,8-Diazaspiro[4.5]decan-8-ylmethyl)-4-(trifluoromethyl)pyrrolidin-1-yl]quinoxaline-5-carbonitrile] came in with an IC50 of 0.019 µM. For `N#Cc1ccc(N2CC(CN3CCC4(CCNCC4)CC3)C3(CC3)C2)c2nccnc12` (stereo not shown) [Example 16, 8-[7-(3,9-Diazaspiro[5.5]undecan-3-ylmethyl)-5-azaspiro[2.4]heptan-5-yl]quinoxaline-5-carbonitrile] the value was 0.133 µM. As to `C[C@H]1CN(c2ccc(C#N)c3nccnc23)C[C@@H]1CN1CCC2(CCNCC2)CC1` [Example 17, 8-[(3S,4R)-3-(3,9-diazaspiro[5.5]undecan-3-ylmethyl)-4-methyl-pyrrolidin-1-yl]quinoxaline-5-carbonitrile], inhibition was half-maximal at 0.065 µM (IC50). Compared with the last compound, the IC50 is about 2-fold lower.

In turn, `N#Cc1ccc(N2CC(CN3C[C@H]4CNC[C@H]4C3)C3(CC3)C2)c2nccnc12` (stereo partly drawn) [Example 18, 8-[7-[[(3aR,6aS)-2,3,3a,4,6,6a-hexahydro-H-pyrrolo[3,4-c]pyrrol-5-yl]methyl]-5-azaspiro[2.4]heptan-5-yl]quinoxaline-5-carbonitrile] displayed an IC50 of 0.082 µM. For `FC(F)(F)c1ccc(N2CC(CN3CCNCC3)C3(CC3)C2)c2nccnc12` (stereo not shown) [Example 20, 5-[7-(Piperazin-1-ylmethyl)-5-azaspiro[2.4]heptan-5-yl]-8-(trifluoromethyl)quinoxaline] the value was 0.068 µM.

Turning to `N#Cc1ccc(N2CC(CN3CCC4(CCCNC4)C3)C3(CC3)C2)c2nccnc12` (stereo not shown) [Example 22, 8-[7-(2,9-Diazaspiro[4.5]decan-2-ylmethyl)-5-azaspiro[2.4]heptan-5-yl]quinoxaline-5-carbonitrile], it took 0.079 µM to reach half-maximal inhibition (IC50).

Compound `C[C@H]1CN(c2ccc(C#N)c3ncccc23)C[C@@H]1CN1CCC2(CCNCC2)CC1` [Example 23, 5-[(3S,4R)-3-(3,9-diazaspiro[5.5]undecan-3-ylmethyl)-4-methyl-pyrrolidin-1-yl]quinoline-8-carbonitrile] returned an IC50 of 0.266 µM.

`N#Cc1ccc(N2CC(CN3CC4(CCCNC4)C3)C3(CC3)C2)c2nccnc12` (stereo not shown) [Example 24, 8-[7-(2,8-Diazaspiro[3.5]nonan-2-ylmethyl)-5-azaspiro[2.4]heptan-5-yl]quinoxaline-5-carbonitrile] yielded an IC50 of 0.063 µM. For `N#Cc1ccc(N2CC(CN3C4CCC3CC(N)C4)C3(CC3)C2)c2nccnc12` (stereo not shown) [Example 25, 8-[7-[(3-Amino-8-azabicyclo[3.2.1]octan-8-yl)methyl]-5-azaspiro[2.4]heptan-5-yl]quinoxaline-5-carbonitrile], the IC50 stood at 0.108 µM. Against the preceding compound, the IC50 is about 1.7-fold higher.

`N#Cc1ccc(N2C[C@H](CN3CCC(N)CC3)[C@@H](C(F)(F)F)C2)c2nccnc12` [Example 26, 8-[(3S,4R)-3-[(4-Amino-1-piperidyl)methyl]-4-(trifluoromethyl)pyrrolidin-1-yl]quinoxaline-5-carbonitrile]: the IC50 turned out to be 0.021 µM. In the case of `C[C@H]1CN(c2ccc(C#N)c3nccnc23)C[C@@H]1CN1CCC2(CCNC2)C1` (stereo partly drawn) [Example 30, 8-[(3S,4R)-3-(2,7-diazaspiro[4.4]nonan-2-ylmethyl)-4-methyl-pyrrolidin-1-yl]quinoxaline-5-carbonitrile], the IC50 is 0.072 µM.

`FC(F)(F)c1ccc(N2CC(CN3CCC4(CCNCC4)CC3)C3(CC3)C2)c2nccnc12` (stereo not shown) [Example 31, 3-[[5-[8-(Trifluoromethyl)quinoxalin-5-yl]-5-azaspiro[2.4]heptan-7-yl]methyl]-3,9-diazaspiro[5.5]undecane] came in with an IC50 of 0.418 µM. Against the preceding compound, the IC50 is about 5.8-fold higher. For `N#Cc1ccc(N2CC(CN3CCC4(CCNCC4)C3)C3(CC3)C2)c2nccnc12` (stereo not shown) [Example 32, 8-[7-(2,8-Diazaspiro[4.5]decan-2-ylmethyl)-5-azaspiro[2.4]heptan-5-yl]quinoxaline-5-carbonitrile], the midpoint of inhibition, the IC50, lay at 0.111 µM.
